From patent publication US11339446B2, “Biomarker for measurement of response and prognosis of triple-negative breast cancer to anticancer agent” (SEOUL NATIONAL UNIVERSITY R&DB FOUNDATION, priority 2017, dated 2022) come the findings set out here.

Common to all, as to assay type: cell-based
One experiment has as its system MDA-MB-157 cell line. Nature of the experiment: CellTiter-Glo cell viability assay after docetaxel, MDA-MB-157. To be noted: MDA-MB-15T. As to the method: (§1) MDA-MB-231, DU4475, MDA-MB-436, and MDA-MB-157 cell lines were purchased from the ATCC. MDA-MB-468, HCC1937, HS578T, and HCC38 cell lines were obtained from the Korea Cell Bank. MDA-MB-157 cell line was cultured in a Leibovitz's L15 culture medium supplemented with 10% fetal bovine serum. The MDA-MB-436 cell line was cultured in a Leibovitz's L15 culture medium supplemented with 10% fetal bovine serum and 0.026 units/ml units insulin. The MDA-MB-231 cell line, the MDA-MB-468 cell line, and the HS578T cell line were each cultured in a DMEM culture medium supplemented with 10% fetal bovine serum in 5% CO2. The remaining cell lines were each cultured in a RPMI-1640 culture medium supplemented with 10% fetal bovine serum in 5% CO2.
(§2) In the present disclosure, docetaxel was used to find genes related to resistance to taxane-based neoadjuvant chemotherapy (NAC). Docetaxel was purchased at Sigma-Aldrich, and then, dissolved according to the instructions of the manufacturer. The cell lines were collected using trypsin treatment, counted with a hemocytometer, and plated for 14 hours at a density of 3,000 cells/well in a 96-well plate. Afterwards, the solvent was replaced with docetaxel at different concentrations (e.g., 0 nM, 0.01 nM, 0.1 nM, 1 nM, 10 nM, and 100 nM), 48 hours after exposure to docetaxel, cell viability experiments were performed using the CellTiter-Glo Luminescent Cell Viability Assay according to the protocol of the manufacture. The CellTiter-Glo Luminescent Cell Viability Assay is a method of determining the number of cells present in a culture medium depending on the amount of ATP in a culture medium. In summary, the same amount of 100 μl of CellTiter-Glo assay reagents were added to each well, incubated for 10 minutes at room temperature, and then, measured according to the luminometry. The experiment was repeated twice, and the 50% inhibitory concentration of each cell line was measured by non-linear regression analysis.

The subject of a further experiment is MDA-MB-468 cell line. Nature of the experiment: CellTiter-Glo cell viability assay after docetaxel, MDA-MB-468. The method, then: as §1, §2
For orientation: Cellular ATP, detected with luciferase, serves as a proxy for viable cell number.

For a further experiment, the system named is MDA-MB-231 cell line. Nature of the experiment: CellTiter-Glo cell viability assay after docetaxel, MDA-MB-231. The method, then: as §1, §2
In another experiment the test system is DU4475 cell line. As to the kind of experiment: CellTiter-Glo cell viability assay after docetaxel, DU4475. The method, then:
as §1, §2

In another experiment the test system is HS578T cell line. As to the kind of experiment: CellTiter-Glo cell viability assay after docetaxel, HS578T. As to the method:
as §1, §2

In a further experiment the test system is MDA-MB-436 cell line. Nature of the experiment: CellTiter-Glo cell viability assay after docetaxel, MDA-MB-436. As to the method: as §1, §2
For a further experiment, the system named is HCC38 cell line. As to the kind of experiment: CellTiter-Glo cell viability assay after docetaxel, HCC38. The method, then: as §1, §2
A further experiment has as its system HCC1937 cell line. As to the kind of experiment: CellTiter-Glo cell viability assay after docetaxel, HCC1937. As to the method: as §1, §2

With `CC(=O)O[C@@]12CO[C@@H]1C[C@H](O)[C@@]1(C)C(=O)[C@H](O)C3=C(C)[C@@H](OC(=O)[C@H](O)[C@@H](NC(=O)OC(C)(C)C)c4ccccc4)C[C@@](O)([C@@H](OC(=O)c4ccccc4)[C@H]21)C3(C)C` [Docetaxel, docetaxel], the IC50 (in general, the concentration at which inhibition is half-maximal) in the experiment with MDA-MB-157 cell line (Homo sapiens, MDA-MB-157, 48 hours exposure) was above 100 nM; with MDA-MB-468 cell line (Homo sapiens, MDA-MB-468, 48 hours exposure), 1.81 nM; in the experiment with MDA-MB-231 cell line (Homo sapiens, MDA-MB-231, 48 hours exposure), 29.1 nM; in the experiment on DU4475 cell line (Homo sapiens, DU-4475, DU4475, 48 hours exposure) it was 11.6 nM; in the experiment on HS578T cell line (Homo sapiens, Hs-578T, 48 hours exposure) it was 11.1 nM; in the experiment with MDA-MB-436 cell line (Homo sapiens, MDA-MB-436, 48 hours exposure), above 100 nM. For the same compound, the IC50 in the experiment on HCC38 cell line (Homo sapiens, HCC38, 48 hours exposure) is above 100 nM; in the experiment on HCC1937 cell line (Homo sapiens, HCC1937, 48 hours exposure), above 100 nM. Besides, the Survival fraction in the experiment with MDA-MB-157 cell line (50 nM) came out at 0.65; with MDA-MB-157 cell line (100 nM), 0.65; in the experiment on MDA-MB-468 cell line (MDA-MB-468, 50 nM), 0.27; with MDA-MB-468 cell line (MDA-MB-468, 100 nM) it was 0.26; in the experiment on MDA-MB-231 cell line (MDA-MB-231, 50 nM) it was 0.47; in the experiment with MDA-MB-231 cell line (MDA-MB-231, 100 nM) it was 0.35. Further, the Survival fraction with DU4475 cell line (DU4475, 50 nM) worked out at 0.37; in the experiment on DU4475 cell line (DU4475, 100 nM), 0.27; in the experiment with HS578T cell line (50 nM), 0.32; in the experiment on HS578T cell line (100 nM) it was 0.29; in the experiment on MDA-MB-436 cell line (MDA-MB-436, 50 nM), 0.81; in the experiment on MDA-MB-436 cell line (MDA-MB-436, 100 nM) it was 0.75. The Survival fraction in the experiment on HCC38 cell line (HCC38, 50 nM) is on record as 0.57; in the experiment on HCC38 cell line (HCC38, 100 nM) it was 0.53; with HCC1937 cell line (HCC1937, 50 nM) it was 0.76; with HCC1937 cell line (HCC1937, 100 nM), 0.70.
